Measured values published in patent US9669014B2, “Small molecule inhibitors of superoxide dismutase expression” (Northwestern University, priority 2014, dated 2017).
≈ marks a conversion by molar mass, not a printed value. Entries after “also recorded” stand apart in the source; their conditions may differ. Read-outs that look alike come from different tables or passages of the source.

Key:
G93A-SOD1 expression = assay: SOD1 protein expression in cultured fibroblasts from G93A-SOD1 mice (ELISA); assay type: cell-based, mouse; settings: for Effect on SOD1 expression (in words) / Shape of dose-response curve for SOD1 expression / IC50: G93A-SOD1 mouse fibroblasts; for activity at 10 µM: Mus musculus, 48 h, 10 μM compound
Procedure: Fibroblasts were treated with the title compounds at the indicated concentration for 48 hr. Cells were washed, lysed, and SOD1 levels measured by ELISA. SOD1 levels are normalized to the total protein in the lysate.
Thus, we used cultured fibroblasts from the G93A-SOD1 transgenic mouse to screen GSK3β protein kinase inhibitors (FIG. 1) for their effects on SOD1 expression. The transgene construct contains the human SOD1 promoter so that cellular signaling processes that affect transcription of the gene will be fully functional. We chose a structurally diverse group of compounds including some natural products.

CDK5, CDK2, CDK1, CDK4 = settings: cited from earlier work
GSK3β = GSK3β (Homo sapiens, UniProt P49841); settings: published values; cited from earlier work
Sequence of GSK3β (P49841 whole entry, species assumed): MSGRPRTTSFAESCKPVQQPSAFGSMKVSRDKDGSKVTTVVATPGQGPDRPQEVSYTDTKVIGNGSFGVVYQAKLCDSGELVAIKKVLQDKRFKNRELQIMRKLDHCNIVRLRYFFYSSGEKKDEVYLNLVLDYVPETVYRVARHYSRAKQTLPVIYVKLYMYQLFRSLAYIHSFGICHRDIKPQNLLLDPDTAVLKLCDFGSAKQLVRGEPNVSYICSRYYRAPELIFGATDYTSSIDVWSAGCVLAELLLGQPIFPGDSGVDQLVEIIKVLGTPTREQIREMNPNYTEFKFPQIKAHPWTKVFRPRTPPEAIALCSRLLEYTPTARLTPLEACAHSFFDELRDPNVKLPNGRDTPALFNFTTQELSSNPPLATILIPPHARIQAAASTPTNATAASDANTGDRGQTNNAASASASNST

cell toxicity [1] = assay: Cell toxicity; assay type: cell-based
[2] = Distribution in tissues of nontransgenic mice after injection; assay type: in vivo, mouse; settings: for CNS distribution and persistence (in words): nontransgenic mice; for concentration at 2 h / concentration at 4 h / concentration at 24 h: mouse, other: injection, 10 mg/kg injection; for Concentration (μM), Brain / Concentration (μM), Serum / Concentration (μM), Spinal cord: n = 2
Procedure: The blood brain barrier permeability of GSK3B-II was determined in nontransgenic mice. […] The peak and sustained concentrations found in the spinal cord and brain indicate that the 20 mg/kg dose puts the drug into the inhibitory range found in the cellular assays.
(§1) We also tested compound NUCC-434 for distribution in non-transgenic mice. […] While there are a multitude of methods for improving aqueous solubility of drugs (32) we chose a relatively simple route using a cyclodextrin based carrier (Sulfo-butylether beta-cyclodextrin, Captisol) to solubilize the drug in aqueous solution. Using the cyclodextrin carrier, we were able to solubilize NUCC-434 to 2 mg/mL in water and deliver 10 mg/kg to nontransgenic mice for pharmacokinetics. […] However, the distribution dynamics are different in the presence of the cyclodextrin which appears to slow uptake into the CNS as the peak drug concentration was delayed (Table 4). Such changes in distribution dynamics using cyclodextrins have not been studied in detail.

[3] = Solubility in dosing vehicle; assay type: physicochemical
Procedure: as §1

cell toxicity [4] = settings: cited from earlier work
SOD1 expression = SOD1 expression in G93A-SOD1 transgenic mouse motor neurons; assay type: cell-based
Source text: The compound decreases SOD1 expression in vitro in assays done in mouse fibroblasts (FIG. 3) and mouse motor neurons (FIG. 7).
The mechanism of inhibition is largely due to a decrease in the G93A-SOD1 mRNA. The transgene expressed in the mouse uses the native human promoter. Thus, therapy with these drugs in human subjects would also lead to a decrease in SOD1 mRNA in all tissues.

SOD1 mRNA = SOD1 mRNA in G93A-SOD1 mouse fibroblasts; assay type: cell-based
Source text: FIG. 3. […] A. Dose-dependent changes in G93A-SOD1 protein expression and B. SOD1 mRNA (n=3). Data are normalized to GAPDH activity (protein) or mRNA. Error bars are SEM.

SOD1 = SOD1 protein in CNS tissues of treated G93A-SOD1 mice (ELISA); assay type: in vivo, mouse; settings: 20 mg/kg IP every other day for 26 days
Procedure: FIG. 7. Inhibition of SOD1 protein expression in the G93A-SOD1 mouse. GSK3B-I treatment was at 20 mg/kg IP every other day for 26 days. Mice were sacrificed and SOD1 measured in the indicated tissues. […] Error bars are SEM.
Initial testing was carried out in a small cohort (5-6 animals) of G93A-SOD1 mice (high level of mutant SOD1 expression). The drug was dosed at 20 mg/kg IP every other day for 26 days. Mice were sacrificed and SOD1 was measured by ELISA.

[5] = Fibroblast, Table 2, relative to control, read-out: Relative SOD1 expression 10 μM compound
[6] = Fibroblast, Table 5, read-out: Relative SOD1 Expression in Presence of Compound (10 μM)
[7] = brain, cyclodextrin carrier, read-out: Brain
[8] = serum, cyclodextrin carrier, read-out: Serum
[9] = spinal cord, cyclodextrin carrier, read-out: Spinal Cord
[10] = 20 mg/kg intraperitoneal, 24 hr

| SMILES | Effect on SOD1 expression (in words) (G93A-SOD1 expression) | activity at 10 µM (G93A-SOD1 expression; [5]) | activity at 10 µM (G93A-SOD1 expression; [6]) | further results |
| --- | --- | --- | --- | --- |
| COc1cccc(CSc2nnc(-c3ccncc3)o2)c1 [NUCC-433] | dose dependent reduction of SOD1 expression in vitro | 50% | 49.9% | Shape of dose-response curve for SOD1 expression (G93A-SOD1 expression): flattened rather than upward curvature at higher concentration |
| CCCCc1c(-c2ccc(O)cc2)[nH]c2nccnc12 [Aloisine, Aloisine A, reference compound] | increased SOD1 expression | – | – | Effect on SOD1 expression (in words) (G93A-SOD1 expression; 48 hr treatment): Increases SOD1; Comments: other kinases inhibited (CDK5, CDK2, CDK1, CDK4): Also inhibits CDK5, |
| c1cc(CSc2nnc(-c3ccncc3)o2)ccn1 [NUCC-437] | not significantly different from control | – | 90.3% | – |
| O=[N+]([O-])c1cccc(CSc2nnc(-c3ccncc3)o2)c1 [NUCC-432] | tended to cause an increase in SOD1 expression | 117% | 117% | – |
| Cc1cc(-c2nnc(SCc3ccc(F)cc3)o2)ccn1 [NUCC-0000405] | – | – | 95% | – |
| O=c1c(C2=NC3C=CC=CC3N2)coc2ccc(Cl)cc12 (centres unmarked) [NUCC-0000406] | – | – | 89.9% | – |
| Fc1ccc(CSc2nnc(-c3ccncc3)o2)cc1 [NUCC-324] | – | 86% | 86.3% | – |
| Brc1ccc(CSc2nnc(-c3cccnc3)o2)cc1 [NUCC-322] | – | – | 68.6% | SOD1 expression, % of control (G93A-SOD1 expression; 10 μM): 68.6 % of control |
| O=C(CCl)c1cc(Br)c(Br)s1 [GSK3B-VI, reference compound] | inhibits SOD1 expression | – | – | IC50 (GSK3β): 1000 nM; IC50 (G93A-SOD1 expression; 48 hr treatment): 650 nM; Concentration at which cell toxicity is exhibited (cell toxicity [1]): greater than 5 μM |
| Cn1cc(C2=C(c3ccc(Cl)cc3Cl)C(=O)NC2=O)c2ccccc21 [SB216763, reference compound] | not more effective at decreasing SOD1 expression in vitro | – | – | IC50 (G93A-SOD1 expression; Fibroblast, 48 hr treatment): 3000 nM |
| CSc1nnc(-c2ccnc(NC3CCOCC3)c2)o1 [NUCC-0000473] | – | – | 127% | – |
| Cc1ccc(CSc2nnc(-c3ccncc3)o2)cc1 [NUCC-436] | – | 126% | 126% | – |
| COc1ccc(CSc2nnc(-c3ccncc3)o2)cc1 [NUCC-434] | dose dependent reduction of SOD1 expression in vitro | 47% | 47.4% | Shape of dose-response curve for SOD1 expression (G93A-SOD1 expression): flattened rather than upward curvature at higher concentration; CNS distribution and persistence (in words) ([2]; 10 mg/kg, cyclodextrin carrier): entered the CNS and persisted for 24 hr in the spinal cord; concentration at 2 h [2, 7]: 29 nM; concentration at 4 h [2, 7]: 47 nM; concentration at 2 h [2, 8]: 153 nM; concentration at 4 h [2, 8]: 334 nM; concentration at 24 h ([2]; serum, cyclodextrin carrier, 24 hr, read-out: Serum): 123 nM; concentration at 2 h [2, 9]: 57 nM; concentration at 4 h [2, 9]: 162 nM; concentration at 24 h ([2]; spinal cord, cyclodextrin carrier, 24 hr, read-out: Spinal Cord): 113 nM; Solubility in standard 1-2% DMSO vehicle ([3]; 1-2% DMSO vehicle): poor; solubility ([3]; aqueous with cosolvent or surfactant or cyclodextrin, Sulfo-butylether beta-cyclodextrin (Captisol) in water, read-out: Solubility in water with cyclodextrin carrier): 2000 µg/mL (≈ 6.68 mM) |
| CSc1nnc(-c2ccnc(Nc3ccccc3)c2)o1 [NUCC-0000471] | – | – | 106% | – |
| c1cncc(CSc2nnc(-c3ccncc3)o2)c1 [NUCC-438] | not significantly different from control | – | 112% | – |
| Brc1ccc(CSc2nnc(-c3ccncc3)o2)cc1 [NUCC-320] | no effect on SOD1 expression | 103% | 103% | – |
| FC(F)(F)c1ccc(CSc2nnc(-c3ccncc3)o2)cc1 [NUCC-435] | significant increase in SOD1 expression | 157% | 158% | – |

| SMILES | Effect on SOD1 expression (in words) (G93A-SOD1 expression) | activity at 10 µM (G93A-SOD1 expression; [5]) | activity at 10 µM (G93A-SOD1 expression; [6]) | further results |
| --- | --- | --- | --- | --- |
| O=C1Cc2c([nH]c3ccc(Br)cc23)-c2ccccc2N1 [Kenpaullone, reference compound] | only weakly decreased SOD1 expression | – | – | IC50 (G93A-SOD1 expression; Fibroblast, 48 hr treatment): 10000 nM; Comments: other kinases inhibited (CDK5, CDK2, CDK1, CDK4): Also inhibits CDK5, |
| Brc1cccc(CSc2nnc(-c3ccncc3)o2)c1 [NUCC-318] | – | 91% | 90.3% | – |
| Ic1ccc(CSc2nnc(-c3ccncc3)o2)cc1 [NUCC-321] | – | 69% | 70.2% | – |
| CCc1nc(N)nc(N)c1-c1ccc(Cl)cc1 [pyrimethamine] | – | – | – | Cell toxicity in vitro (cell toxicity [4]): cell toxicity in the effective dose range |
| Clc1ccc(CSc2nnc(-c3ccncc3)o2)cc1 [NUCC-440] | tended to cause an increase in SOD1 expression | 123% | 123% | – |
| c1ccc(CSc2nnc(-c3ccncc3)o2)cc1 [NUCC-441] | activates expression of SOD1 | 133% | 133% | – |
| O=[N+]([O-])c1ccc(CSc2nnc(-c3ccncc3)o2)cc1 [NUCC-431] | – | 102% | 102% | – |
| Fc1cccc(CSc2nnc(-c3ccncc3)o2)c1 [NUCC-319] | significant increase in SOD1 expression | 143% | 144% | – |
| CSc1nnc(-c2ccnc(NCc3ccccc3)c2)o1 [NUCC-0000472] | – | – | 146% | – |
| O=C1Nc2cc(Br)ccc2/C1=C1/Nc2ccccc2/C1=N\O [GSK3B-IX, reference compound] | increased SOD1 expression | – | – | – |
| Ic1cccc(CSc2nnc(-c3ccncc3)o2)c1 [GSK3B-II, reference compound] | most potent at inhibiting G93A-SOD1 expression; also recorded: dose dependent reduction of SOD1 expression in vitro | – | – | Shape of dose-response curve for SOD1 expression (G93A-SOD1 expression): biphasic dose-response curve; IC50 (G93A-SOD1 expression; 48 hr treatment): 625 nM; Concentration (μM), Brain ([2]; 20 mg/kg intraperitoneal, 1 hr): 0.944 µM; Concentration (μM), Serum ([2]; 20 mg/kg intraperitoneal, 1 hr): 0.672 µM; Concentration (μM), Spinal cord ([2]; 20 mg/kg intraperitoneal, 1 hr): 4.00 µM; Concentration (μM), Brain [2, 10]: 0.077 µM; Concentration (μM), Serum [2, 10]: 0.073 µM; Concentration (μM), Spinal cord [2, 10]: 0.855 µM; CNS distribution and persistence (in words) ([2]; 20 mg/kg intraperitoneal): rapidly distributes into the brain and spinal cord; also recorded: still detectable after 24 hrs in the brain and spinal cord; Effect on SOD1 expression in motor neurons (SOD1 expression): inhibits SOD1 expression; Effect on SOD1 mRNA (SOD1 mRNA): reducing the level of SOD1 mRNA; Change of SOD1 protein in spinal cord, cerebellum, brain stem, cerebral cortex (SOD1): significant decreases in SOD1 were measured; also recorded: SOD1 protein is reduced; Change of SOD1 protein in spinal cord, cerebellum, brain stem, cerebral cortex (SOD1; listed as GSK3B-I): change in expression was significant |
| Cn1c(SCc2ccc(Br)cc2)nnc1-c1ccncc1 [NUCC-0000323] | – | – | 103% | – |
| N#Cc1ccc(-c2ccc(CSc3nnc(-c4ccc5c(c4)OCO5)o3)cc2)cc1 [NUCC-0000418] | – | – | 114% | – |
| CSc1nnc(-c2ccncc2-c2ccc(F)cc2)o1 [NUCC-0000404] | – | – | 94.9% | – |
| Clc1cccc(CSc2nnc(-c3ccncc3)o2)c1 [NUCC-439] | – | 96% | 95.9% | – |
| O=[N+]([O-])c1ccccc1CSc1nnc(-c2ccncc2)o1 [NUCC-0000430] | – | – | 101% | – |
